Key:
Assay type in all cases: cell-based
human wild type MC5R = target: T1, human wild type MC5R (Homo sapiens, UniProt P33032); test: cAMP GloSensor assay, MC5R; settings: HEK293 cells transiently transfected with human MC5R; read-out: average signaling potency (EC50), cAMP GloSensor, MC5R
T1 construct: expressed in transfected cells; host or cells: HEK293 / HEK 293T, pcDNA3.1(+)

[1] = test system: melanized reconstituted human epidermis (RHE/MEL/001); test: In vitro pigmentation assay, 3D reconstituted human epidermis, dermoscopy
Procedure: The study was carried out on melanized human epidermis (RHE/MEL/001; batch CB0521-3) in vitro reconstituted with NHEKs (Normal human epidermal keratinocytes, Lonza 00192906) isolated from foreskin of 3 neonatal Caucasian donors and NHEM-DP (Normal Human Epidermal Melanocytes-Darkly pigmented) isolated form one donor (phototype IV-V). The tissues were cultured at the air-liquid interface in Epilife medium (Fisher Scientific, MEP1500CA) containing specific supplements (with among others Human Keratinocytes Growth Factors, Fisher Scientific S0015 or SO01K) and antibiotics (Gentamycin, Fisher Scientific, 15710049). They were maintained in a humid atmosphere at 37° C. with 5% CO2.
RHE/MEL/001 were reconstituted and cultivated at the air-liquid interface during 14 days in Epilife medium supplemented with specific growth supplements (as described in paragraph 1) in a humid atmosphere at 37° C. with CO2 5%.
IBMX (Sigma; 15879) at 100 µM was used as tanning reference compound to validate the experiment. A DMSO control (corresponding to the solvent used to solubilize IBMX) at 0.02% (corresponding to the final concentration in DMSO found in the culture medium for the condition treated with IBMX) was planned as well. Four replicates were planned per condition (n=4).
At the end of the 10 days treatments (at day 14), macroscopic high-resolution pictures of tissues (n=4) were taken. This was performed using the C-Cube device (Dermoscope type tool; Pixience, France) coupled to C-Cube clinical 3 software, which uses a proprietary method of colour calibration, and provides razor-sharp images of high quality and precision. The following endpoints were calculated, each one taking into account 3 values from the mode “L* a* b*” with L* reflecting the luminance/brightness (value from 0 to 100 with high values for clear skins), a* to gives an idea about the redness of the skin (value from −60 to 60 on the red/green axis) and b* to gives an idea about the yellowness of the skin (value from −60 to 60 on the blue/yellow axis): • ITA (Individual Typology Angle) characterizing the phototype, compared to a standard scale, with ITA>55° for very clear skins and ITA<−30° for black skins. • PI (Pigmentation Index) whose value is directly proportional to the skin pigmentation, with PI from 140 for clear skins to 200 for dark skins. • Colorimetric difference (score or ΔE) allows to quantify colour variation between a test condition and a reference. […]
The two test items, hydro-soluble, were evaluated in parallel of one reference compound known to be a pigmentation inducer, namely IBMX. Their capacity to stimulate the production of melanin was evaluated by visual quantification of melanin on macroscopic high resolution pictures obtained by dermoscopy. […]

[2] = test system: moderately pigmented normal human epidermal melanocytes (NHEM-MP); test: In vitro pigmentation assay, melanin synthesis, 2D NHEM moderately pigmented; settings: 10 days; for melanin synthesis compared to the non-stimulated control, reference compounds: 1 mM L-tyrosine, 100 μM IBMX or 10 μM NDP-MSH
Procedure: (§1) Highly and moderately pigmented melanocytes were seeded in 24-well plates and cultured in culture medium for 24 hours. The medium was then replaced by culture medium containing or not (control) the test compounds or the reference compounds (L-tyrosine at 1 mM, IBMX at 100 and 200 μM and NDP-MSH at 10 μM). The cells were then incubated for 10 days with treatment renewal at day 3 and day 7. All experimental conditions were performed in n=3. At the end of the incubation time, the culture supernatants were removed, and melanin was extracted by cell lysis using a 0.5 N NaOH solution. The optical density (OD) of each experimental point was measured at 405 nm and melanin quantity was determined according to melanin standard curve (standard curve ranging from 0.39 to 100 μg/ml). The results were expressed in μg/ml of melanin. […] NHEM-HP response to L-tyrosine and NDP-MSH was stronger than in NHEM-MP while IBMX induced a stronger response in the NHEM-MP.

[3] = test system: highly pigmented normal human epidermal melanocytes (NHEM-HP); test: In vitro pigmentation assay, melanin synthesis, 2D NHEM highly pigmented; settings: 10 days; for melanin synthesis compared to the non-stimulated control, reference compounds: 1 mM L-tyrosine, 100 μM IBMX or 10 μM NDP-MSH
Procedure: as §1

[4] = 10 μM in culture medium, 10 days, dermoscopy

T1 sequence (P33032 whole entry): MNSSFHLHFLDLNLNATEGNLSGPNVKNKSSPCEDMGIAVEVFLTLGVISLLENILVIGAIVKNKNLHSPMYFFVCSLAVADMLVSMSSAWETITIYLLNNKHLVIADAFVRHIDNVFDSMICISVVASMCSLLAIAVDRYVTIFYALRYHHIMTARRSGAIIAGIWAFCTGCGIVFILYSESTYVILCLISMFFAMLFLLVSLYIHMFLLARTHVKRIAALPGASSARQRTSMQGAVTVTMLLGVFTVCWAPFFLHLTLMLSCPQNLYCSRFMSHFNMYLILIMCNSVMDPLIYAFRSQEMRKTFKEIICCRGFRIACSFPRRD

`CC(=O)N[C@@H](CCCNC(=N)N)C(=O)N[C@H]1CSSC[C@@H](C(N)=O)NC(=O)[C@H](Cc2c[nH]c3ccccc23)NC(=O)[C@H](CCCNC(=N)N)NC(=O)[C@@H](Cc2ccccc2)NC(=O)[C@H](Cc2c[nH]cn2)NC(=O)[C@@H](C)NC1=O` [setmelanotide, reference compound] showed an EC50 (human wild type MC5R) of 451 ± 143 nM.
“Setmelanotide acetate [reference compound]” was tested, and the “Individual typology angle (ITA)” value [1, 4] was “significantly modulated”, the “pigmentation index (PI)” value [1, 4] was “significantly modulated” and the “visual colorimetric difference (score, ΔE)” value [1, 4] was “significantly modulated”. The “effect on epidermis pigmentation (conclusion of dermoscopy analysis)” value ([1]; 10 μM, human epidermis in culture) was “has a tanning effect”, the “modulation of melanin synthesis” value [2] was “did not modulate” and the melanin synthesis ([3]; 10 μM) was 130 % of the control.
For `N[C@@H](Cc1ccc(O)cc1)C(=O)O` [L-tyrosine], the “melanin synthesis compared to the non-stimulated control, reference compounds” value [2] was “induced a stimulation of melanin synthesis” and the “melanin synthesis compared to the non-stimulated control, reference compounds” value [3] was “induced a stimulation of melanin synthesis”.
NDP-MSH was tested, and the “melanin synthesis compared to the non-stimulated control, reference compounds” value [2] was “induced a stimulation of melanin synthesis” and the “melanin synthesis compared to the non-stimulated control, reference compounds” value [3] was “induced a stimulation of melanin synthesis”.
With `CC(C)Cn1c(=O)n(C)c(=O)c2[nH]cnc21` [IBMX] the “melanin synthesis compared to the non-stimulated control, reference compounds” value [2] was “induced a stimulation of melanin synthesis” and the “melanin synthesis compared to the non-stimulated control, reference compounds” value [3] was “induced a stimulation of melanin synthesis”.

From patent US20260103529A1, “Amino Acid Sequences Directed Against the Melanocortin 4 Receptor and Polypeptides Comprising the Same for the Treatment of MC4R-Related Diseases and Disorders” (Confo Therapeutics N.V., priority 2022, published 2026)
